From PMC8292346, “Dysfunction of the key ferroptosis-surveilling systems hypersensitizes mice to tubular necrosis during acute kidney injury” (Nature Communications, 2021)
Several values for one entry are separate records, joined by “and”; a condition that tells them apart may be missing. Identical values can stand only once. Like-named read-outs stand apart in the source and are kept apart here. One block for each compound: values may come before it.

How the values were obtained:
NIH3T3 cells [1] = experiment: Ferroptosis inducers (FINs)/ferroptocide, 7-AAD/annexin V flow cytometry; type: cell-based, murine; details: NIH3T3, 10 µM FIN56 24 h, alone (DMSO) or with Fer-1 1 µM, Nec-1s 30 µM, Nec-1f 30 µM
Description: (§1) To induce necroptosis in a human cell line, HT29 cells were stimulated at the indicated time points with 20 ng/ml human TNFα (Biolegend), 1 μM SMAC-mimetics (Birinapant, Chemietek), and 20 μM zVAD-fmk (Selleckchem, herein referred to as zVAD). For the induction of necroptosis in NIH3T3 cells, cells were incubated with 20 ng/ml TNF-α and 20 μM zVAD for indicated time points. […] Cells were seeded in six-well plates or petri dishes. […] After indicated time points, cells were collected and prepared for flow cytometry, immunoblotting, and/or LDH release assays.
(§2) Cells were harvested and the pellets were washed twice in PBS and stained with 5 μl of 7-AAD (BD Biosciences) and 5 μl of annexin-V-FITC (BD Biosciences) added to 100 μl annexin-V binding buffer (BD Biosciences). After 15 min, cells were recorded on the LSRII with the FACS Diva 6.1.1 software (BD Biosciences) and subsequently analyzed with the FlowJo v10 software (Tree Star).

HT1080 cells [2] = experiment: CellTiter-Glo luminescent cell viability assay (ATP), dose-response; type: cell-based, human
Description: Cells were plated in an opaque-walled 96-well plate and treatment with ferroptosis inducers and/or ferroptosis inhibitors was initiated 24 h later. […] Here, the reaction agent was directly added to the wells, mixed on an orbital shaker for 2 min, and then incubated at room temperature for 10 min. The luminescence was detected using a Promega GloMax® instrument.

[3] = system: Mouse cortical tubule cells (MCT); experiment: FINs/ferroptocide, 7-AAD/annexin V flow cytometry; type: cell-based; details: MCT, alone (DMSO) or with Fer-1 1 µM, Nec-1s 30 µM, Nec-1f 30 µM
Description: as §1, §2

CD10-135 cells = experiment: FINs/ferroptocide, LDH release assay; type: cell-based, human; design: LDH release: unit not given here; details: Nec-1f 30 µM
HT1080 cells [4] = experiment: Ferroptosis inducers (FINs)/ferroptocide, 7-AAD/annexin V flow cytometry; type: cell-based, human
[5] = system: primary murine tubular cells; experiment: RSL3-induced LDH release of primary kidney tubular cells; type: cell-based; details: primary kidney tubular cells, RSL3 14 h, alone (DMSO) or with Fer-1 or Nec-1f 30 µM
Description: The LDH release of cells or of freshly isolated kidney tubules was measured according to manufacturers’ instructions at indicated time points. In brief, an aliquot of the supernatant was taken and Lysis Solution was added for 45 min to induce maximal LDH release before another aliquot of the supernatant was taken. Subsequently, the supernatants were incubated with CytoTox 96® Reagent for 15 min protected from light at room temperature before adding Stop Solution. Absorbance was measured at 490 nm.
Generation, cell culture, and induction of cell death in primary murine tubular cells. Murine tubular cells were generated by outgrowth from isolated renal tubules (see above). Primary murine tubules were placed in six-well plates containing Dulbecco’s Modified Eagle Medium F-12 Nutrient Mixture without phenol red (DMEM/F12, Thermo Fisher), supplemented with 0.01 mg/ml recombinant human insulin, 5.5 μg/ml human transferrin, 0.005 μg/ml Na2SeO3 (ITS without linoleic acid, Sigma Aldrich), 50 nM hydrocortisone, 100 U/ml penicillin, and 100 μg/ml streptomycin (Pen/Strep, Thermo Fisher). After two days, the outgrown primary murine tubular cells were washed with PBS and a fresh medium was added. When the number of primary murine tubular cells reached approximately 50% confluence, the cells were removed from the six-well plates using Trypsin-EDTA (Thermo Fisher), washed with medium and a Ficoll Paque Plus (Sigma Aldrich) gradient was performed to remove any dead cells, and debris from the murine renal tubules. Cells were washed twice with PBS and seeded in six-well plates with medium. Once the number of grown cells reached approximately 50% confluence, they were washed with PBS and treated with type 2 FIN: RSL3 (also see Supplementary Table 2 for details). After 14 h, medium and cells were collected and prepared for LDH release assay. Images of the treated primary murine tubular cells were obtained using a 20×/0.30 PH1 objective on a Leica DMi1 microscope.

[6] = both, microsomes, 2 µM, pH 7.4
NIH3T3 cells [7] = experiment: Ferroptosis inducers (FINs)/ferroptocide, 7-AAD/annexin V flow cytometry; type: cell-based, murine; details: NIH3T3, 5 µM erastin 24 h, alone (DMSO) or with Fer-1 1 µM, Nec-1s 30 µM, Nec-1f 30 µM
[8] = Stability in human plasma; type: in vitro ADME; details: 1 µM, 37 °C
Description: Plasma stability is defined as the percentage of parent compound remaining in plasma over the time. Here, incubations were carried out in 5 aliquots of 70 µl each (one for each time point), in duplicates. […] The percentage of the test compounds remaining after incubation in plasma and their half-lives (T1/2) was calculated.

SMILES: O=S(=O)(NC1CCCCC1)c1ccc2c(c1)C(=NO)c1cc(S(=O)(=O)NC3CCCCC3)ccc1-2 [FIN56]
- double-negative events (7-AAD/annexin V) (NIH3T3 cells [1]): 87.6% and 95% and 90.3%
- ATP luminescence (CellTiterGlo) (HT1080 cells [2]; HT1080, inducer at 0.01 µM): 100%
- ATP luminescence (CellTiterGlo) (HT1080 cells [2]; HT1080, inducer at 0.1 µM): 100%
- ATP luminescence (CellTiterGlo) (HT1080 cells [2]; HT1080, inducer at 0.5 µM): 100%
- ATP luminescence (CellTiterGlo) (HT1080 cells [2]; HT1080, inducer at 1 µM): 100%
- double-negative events (7-AAD/annexin V) ([3]; 10 µM FIN56 24 h): 96.5% and 90.7% and 88.5%
- LDH release (CD10-135 cells; CD10-135, FIN56 alone (FIN) or with Fer-1, Nec-1s): 81.45 and 58.7091 and 60.5407
- Induction of ferroptosis (HT1080 cells [4]; HT1080): does not effectively drive ferroptosis
- double-negative events (7-AAD/annexin V) (HT1080 cells [4]; HT1080, 10 µM FIN56 24 h, alone (DMSO) or with Fer-1 1 µM, Nec-1s 30 µM, Nec-1f 30 µM): 85.5% and 85.1% and 86%
- double-negative events (7-AAD/annexin V) (HT1080 cells [4]; HT1080, FIN56 10 µM, 24 h): 95% and 96% and 94%
- double-negative events (7-AAD/annexin V) (HT1080 cells [4]; HT1080, FIN56 10 µM, 48 h): 92% and 90% and 74%
- double-negative events (7-AAD/annexin V) (HT1080 cells [4]; HT1080, FIN56 20 µM, 24 h): 92% and 93%
- double-negative events (7-AAD/annexin V) (HT1080 cells [4]; HT1080, FIN56 20 µM, 48 h): 93% and 92% and 89% and 71%
- double-negative events (7-AAD/annexin V) (HT1080 cells [4]; HT1080, FIN56 50 µM, 24 h): 85% and 92% and 93%
- double-negative events (7-AAD/annexin V) (HT1080 cells [4]; HT1080, FIN56 50 µM, 48 h): 83% and 87% and 78% and 65%
- double-negative events (7-AAD/annexin V) (HT1080 cells [4]; HT1080, FIN56 100 µM, 24 h): 85% and 86% and 80%

SMILES: CC1(CCO)CC2(CCC(C(C)(C)C)CC2)OO1 (stereo not drawn) [FINO2]
- ATP luminescence (CellTiterGlo) (HT1080 cells [2]; HT1080, inducer at 0.01 µM): 100%
- ATP luminescence (CellTiterGlo) (HT1080 cells [2]; HT1080, inducer at 0.1 µM): 100%
- ATP luminescence (CellTiterGlo) (HT1080 cells [2]; HT1080, inducer at 0.5 µM): 100%
- ATP luminescence (CellTiterGlo) (HT1080 cells [2]; HT1080, inducer at 1 µM): 100% and 53.72%
- ATP luminescence (CellTiterGlo) (HT1080 cells [2]; HT1080, inducer at 50 µM): 0.7403% and 0.06%
- ATP luminescence (CellTiterGlo) (HT1080 cells [2]; HT1080, inducer at 100 µM): 0% and 0.26% and 0.2% and 0.08%
- ATP luminescence (CellTiterGlo) (HT1080 cells [2]; HT1080, inducer at 200 µM): 0% and 0.3058% and 0.04%
- LDH release (CD10-135 cells; CD10-135, FINO2 alone (FIN) or with Fer-1, Nec-1s): 73.83 and 38.4304 and 67.2452

SMILES: COC(=O)c1ccc([C@@H]2c3[nH]c4ccccc4c3C[C@@H](C(=O)OC)N2C(=O)CCl)cc1 [RSL3]
- LDH release [5]: 91.18% and 51.15% and 48.12% and 50.73% and 54.44%
- ATP luminescence (CellTiterGlo) (HT1080 cells [2]; HT1080, inducer at 0.01 µM): 100%
- ATP luminescence (CellTiterGlo) (HT1080 cells [2]; HT1080, inducer at 0.1 µM): 100%
- ATP luminescence (CellTiterGlo) (HT1080 cells [2]; HT1080, inducer at 0.113 µM): 100%
- ATP luminescence (CellTiterGlo) (HT1080 cells [2]; HT1080, inducer at 0.5 µM): 30.56% and 28.07% and 28.8%
- ATP luminescence (CellTiterGlo) (HT1080 cells [2]; HT1080, inducer at 1 µM): 18.36% and 19.43% and 14.93%
- ATP luminescence (CellTiterGlo) (HT1080 cells [2]; HT1080, inducer at 1.13 µM): 55.71% and 77.56% and 64%
- ATP luminescence (CellTiterGlo) (HT1080 cells [2]; HT1080, inducer at 5 µM): 11.16% and 17.99% and 22.07%
- LDH release (CD10-135 cells; CD10-135, RSL3 alone (FIN) or with Fer-1, Nec-1s): 53.16 and 45.5353
- double-negative events (7-AAD/annexin V) (HT1080 cells [4]; HT1080, 1.13 µM RSL3 6 h, alone (DMSO) or with Fer-1 1 µM, Nec-1s 30 µM, Nec-1f 30 µM): 61% and 47.8% and 51.8% and 65.7%

- Human microsomal stability, parent compound remaining ([6]; 0 h): 100%
- Human microsomal stability, parent compound remaining ([6]; 7 min): 62%
- Human microsomal stability, parent compound remaining ([6]; 0.25 h): 26%
- Human microsomal stability, parent compound remaining ([6]; 25 min): 6%
- Human microsomal stability, parent compound remaining ([6]; 40 min): 2%
SMILES: O=C(O)Cc1ccccc1Nc1c(Cl)cccc1Cl [diclofenac, reference compound]

SMILES: CCOc1ccccc1-n1c(C(C)N2CCN(C(=O)COc3ccc(Cl)cc3)CC2)nc2ccccc2c1=O (stereo not drawn) [erastin]
- double-negative events (7-AAD/annexin V) (NIH3T3 cells [7]): 10.4% and 3.36% and 6.36% and 2.66%
- ATP luminescence (CellTiterGlo) (HT1080 cells [2]; HT1080, inducer at 0.01 µM): 100%
- ATP luminescence (CellTiterGlo) (HT1080 cells [2]; HT1080, inducer at 0.1 µM): 100%
- ATP luminescence (CellTiterGlo) (HT1080 cells [2]; HT1080, inducer at 0.5 µM): 90.0281% and 100%
- ATP luminescence (CellTiterGlo) (HT1080 cells [2]; HT1080, inducer at 1 µM): 57.4401% and 100%
- ATP luminescence (CellTiterGlo) (HT1080 cells [2]; HT1080, inducer at 100 µM): 3.949%
- ATP luminescence (CellTiterGlo) (HT1080 cells [2]; HT1080, inducer at 200 µM): 12.3673% and 20.98%
- double-negative events (7-AAD/annexin V) ([3]; 5 µM erastin 24 h): 51.9% and 85.2% and 80.4% and 71%
- LDH release (CD10-135 cells; CD10-135, erastin alone (FIN) or with Fer-1, Nec-1s): 92.68 and 85.398 and 91.0128

SMILES: C[C@@H]1CC[C@@]23C[C@H](O)C(=O)[C@@]2(O)[C@]1(C)[C@H](OC(=O)CCl)C[C@@H](C1=CCn2c(=O)n(-c4ccccc4)c(=O)n2C1)[C@@H]3C [ferroptocide]
- ATP luminescence (CellTiterGlo) (HT1080 cells [2]; HT1080, inducer at 0.01 µM): 100%
- ATP luminescence (CellTiterGlo) (HT1080 cells [2]; HT1080, inducer at 0.1 µM): 100%
- ATP luminescence (CellTiterGlo) (HT1080 cells [2]; HT1080, inducer at 0.5 µM): 67.8646% and 100%
- ATP luminescence (CellTiterGlo) (HT1080 cells [2]; HT1080, inducer at 50 µM): -0.02481% and 0.12%
- ATP luminescence (CellTiterGlo) (HT1080 cells [2]; HT1080, inducer at 100 µM): 0% and 0.4% and -1.103% and 0.1%
- ATP luminescence (CellTiterGlo) (HT1080 cells [2]; HT1080, inducer at 200 µM): 0% and -0.7765% and 0.13%
- LDH release (CD10-135 cells; CD10-135, ferroptocide alone (FIN) or with Fer-1, Nec-1s): 93.9 and 97.7396

- Human plasma stability, parent compound remaining ([8]; 0 min): 100%
- Human plasma stability, parent compound remaining ([8]; 20 min): 65%
- Human plasma stability, parent compound remaining ([8]; 40 min): 31%
- Human plasma stability, parent compound remaining ([8]; 60 min): 16%
- Human plasma stability, parent compound remaining ([8]; 120 min): 2%
SMILES: CC(C)[N+](C)(CCOC(=O)C1c2ccccc2Oc2ccccc21)C(C)C [propantheline, reference compound]
